Entries after “also recorded” stand apart in the source; their conditions may differ. Where a name gives a salt, the structure may show the parent alone. Read-outs that look alike come from different tables or passages of the source.
Legend:
[1] = 20 mM in 25 mM or 100 mM MOPS, pH 7.1
A-beta peptide [2] = system: A-beta peptide; design: species or system human
A-beta peptide fragment = A-beta peptide fragment (Homo sapiens, UniProt P05067); experiment: CD helix-coil reversal and pretreatment experiments (Example 11); type: biochemical
Chain of A-beta peptide fragment (P05067 672-713): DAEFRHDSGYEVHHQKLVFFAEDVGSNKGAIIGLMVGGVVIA

A-beta antigen = system: A-beta antigen; design: species or system human
[3] = biological target: peptide 1 (A-beta1-42 peptide) (Homo sapiens, UniProt P05067); type: biochemical
Chain of peptide 1 (A-beta1-42 peptide) (P05067 672-713): as above

A-beta1-42 peptide [4] = biological target: T1, A-beta1-42 peptide (Homo sapiens, UniProt P05067); type: biochemical
T1 sequence (P05067 672-713): as above

[5] = in vivo; cited from earlier work
human subject = conditions: in vivo, po
[6] = Permeation of Transwell membranes alone (wells without cells)
A-beta peptide [7] = biological target: A-beta peptide (Homo sapiens, UniProt P05067); type: biochemical
Chain of A-beta peptide (Homo sapiens, UniProt P05067) (P05067 672-713): as above

A-beta1-42 peptide [8] = biological target: T1, A-beta1-42 peptide; type: biochemical; remark: listed apart in the source

C[Si](Cl)(Cl)CC[Si](C)(Cl)Cl [compound 1042, 1,2-(methyldichlorosilyl)ethane]
time for which solutions were free of precipitate or colloidal suspensions / stable after preparation [1]: at least 24 hours
Cell Permeation Coefficient (cm/sec) Caco-2 (Caco-2 cells; Caco-2): 6.7e-05 cm/s
Permeation Coefficient (cm/sec) Mean ± SD, where applicable (Caco-2 cells; Caco-2): 2.5e-05 cm/s
Total Permeation Coefficient (cm/sec) Mean ± SD, where applicable, Caco-2 (Caco-2 cells; Caco-2): 1.9 ± 1.1 × 10^−5 cm/sec
cell permeation coefficient compared with mannitol, Caco-2 (Caco-2 cells; Caco-2): at least ten times greater
crossing of the epithelial barrier in the Caco-2 model (Caco-2 cells; Caco-2): cross the epithelial barrier relatively efficiently
permeation across Caco-2 cells compared with mannitol (Caco-2 cells; Caco-2): at least ten times greater
amyloid extracted compared with MOPS / buffer controls (A-beta peptide [2]): more amyloid
share of total antigen released to the extract (A-beta peptide [2]): approximately 6%
total extracted (A-beta peptide [2]): 17.2 fmol
recovery of helicity in Al-denatured peptide / reversal of aluminum-induced denaturation (CD) (A-beta peptide fragment; TFE solution, Al(ClO4)3): recovery of helicity
Cell Permeation Coefficient (cm/sec) MDCK (MDCK cells): 5.6e-05 cm/s
Total Permeation Coefficient (cm/sec) Mean ± SD, where applicable, MDCK (MDCK cells): 1.8 ± 1.2 × 10^−5 cm/sec
cell permeation coefficient compared with mannitol, MDCK (MDCK cells): at least ten times greater
crossing of the epithelial barrier in the MDCK model (MDCK cells): cross the epithelial barrier relatively efficiently
permeation across MDCK cells compared with mannitol (MDCK cells): at least ten times greater
share of total antigen released to the extract (A-beta antigen): approximately 12%
total extracted (A-beta antigen): 14.0 fmol

Cl [HCl, hydrochloric acid, reference compound]
reversing the metal-induced helix-coil transition ([3]; acid, product of hydrolysis of chlorosilanes): itself effective for reversing the helix-coil transition
reversal of / protection from metal-induced loss of helix in TFE solutions (CD) (A-beta peptide fragment; polyvalent metal ions as perchlorate salts): can reverse the loss of helix
Total Extracted (fmol) (A-beta antigen): no detectable antigen

[Zn] [Zinc]
effect on the A-beta1-42 CD spectrum (disruption of the alpha helix) (A-beta1-42 peptide [4]): minor or no effects

O=C(O)CN(CCN(CC(=O)O)CC(=O)O)CC(=O)O [EDTA, ethylenediaminetetraacetic acid]
time typical doses last in the body [5]: about 1 hour

C[Si](C)(Cl)CC[Si](C)(C)Cl
effect on development of neurofibrillary tangles and senile plaques (human subject): interferes with further development of neurofibrillary tangles and senile plaques

OC[C@@H](O)[C@@H](O)[C@H](O)[C@H](O)CO [mannitol, reference compound]
Cell Permeation Coefficient (cm/sec) Caco-2 (Caco-2 cells; human, Caco-2, 60 min): 2.6e-06 cm/s
Permeation Coefficient (cm/sec) Mean ± SD, where applicable (Caco-2 cells; human, Caco-2, 60 min, 20 mM): 1.9 ± 1.9 × 10^−6 cm/sec
Total Permeation Coefficient (cm/sec) Mean ± SD, where applicable, Caco-2 (Caco-2 cells; human, Caco-2, 60 min, 20 mM): 1.9 ± 1.9 × 10^−6 cm/sec
Cell Permeation Coefficient (cm/sec) MDCK (MDCK cells; dog, 60 min): 1.4e-06 cm/s
Total Permeation Coefficient (cm/sec) Mean ± SD, where applicable, MDCK (MDCK cells; dog, 60 min, 20 mM): 1.3 ± 1.0 × 10^−6 cm/sec
Transwell Permeation Coeff. Mean ± SD, where applicable [6]: 3.6 ± 0.3 × 10^−5 cm/sec

[Fe+2] [iron (II)]
effect on the A-beta1-42 CD spectrum (disruption of the alpha helix) (A-beta1-42 peptide [4]): minor or no effects

C[Si](O)(O)CCCC#N [compound 3f, (dihydroxy)methyl(3-cyanopropyl)silane]
recovery of the CD spectrum on titration of iron-complexed peptide 1 [3]: dosage effect is evident, but non-linear
stability, solubility and effectiveness in reversing and/or preventing the effect of metal ion on helix formation [3]: efficient combination of stability, solubility, and effectiveness
titration point showing the greatest degree of recovery [3]: 0.25 eq.

C[Si](Cl)(Cl)CCC#N [CEMS, 2-cyanoethylmethyldichlorosilane]
Permeation Coefficient (cm/sec) Mean ± SD, where applicable (Caco-2 cells; human, Caco-2): 4.6e-06 cm/s
Total Permeation Coefficient (cm/sec) Mean ± SD, where applicable, Caco-2 (Caco-2 cells; human, Caco-2): 4.6e-06 cm/s
protection from and/or reversal of metal-induced aggregation (DLS) (A-beta peptide [7]): protection against Al^3+-induced aggregation
total extracted (A-beta peptide [2]): 4.5 fmol
protection against loss of helicity upon addition of Al(ClO4)3 (A-beta peptide fragment): protection against loss of helicity
recovery of helical structure (CD) (A-beta peptide fragment): recovery of helical structure
recovery of helicity (CD) (A-beta peptide fragment): recovery of helicity
recovery of helicity in Al-denatured peptide / reversal of aluminum-induced denaturation (CD) (A-beta peptide fragment): appeared to reverse aluminum-induced denaturation; also recorded: recovery of helicity
Total Permeation Coefficient (cm/sec) Mean ± SD, where applicable, MDCK (MDCK cells; dog): 1.3e-06 cm/s
amount of Al added until which helicity was preserved (A-beta1-42 peptide [8]): about 1 equivalent
protection of helical structure of A-beta1-42 against amyloid formation by aluminum (III) (A-beta1-42 peptide [8]): protection of the helical structure
total extracted (A-beta antigen): 1.4 fmol

— patent US20090203644A1, “Compositions for treating and/or preventing diseases characterized by the presence of metal ions” (GrenPharma LLC, priority 2004, published 2009)
